These compounds were tested against PI3Kα (Homo sapiens, UniProt P42336) (assay: PI3K Biochemical Assay (ATP consumed, luciferase-luciferin chemiluminescence)). Conditions: 1 μM ATP, 10 μM PIP2; last bin: >= 2,000 nM or not active under the conditions the assay was run; read-out: IC50 for PI3Kα in this assay.
Procedure: PI3Kα activity is measured as the percent of ATP consumed following the kinase reaction using luciferase-luciferin-coupled chemiluminescence. Reactions were conducted in 384-well white, medium binding microtiter plates (Greiner). Kinase reactions were initiated by combining test compounds, ATP, substrate (PIP2), and kinase in a 20 μL volume in a buffer solution. The standard PI3Kalpha assay buffer is composed 50 mM Tris, pH 7.5, 1 mM EGTA, 10 mM MgCl2, 1 mM DTT and 0.03% CHAPS. The standard assay concentrations for enzyme, ATP, and substrate are 1.5 nM, 1 μM, and 10 μM, respectively. The reaction mixture was incubated at ambient temperature for approximately 2 h. Following the kinase reaction, a 10 μL aliquot of luciferase-luciferin mix (Promega Kinase-Glo) was added and the chemiluminescence signal measured using a Victor2 plate reader (Perkin Elmer). Total ATP consumption was limited to 40-60% and IC50 values of control compounds correlate well with literature references. Substituting PI3Kα with PI3Kβ, PI3Kγ, or PI3Kδ, the inhibitory activity of the compounds for the other isoforms of I3K were measured.

Sequence of PI3Kα (P42336 whole entry): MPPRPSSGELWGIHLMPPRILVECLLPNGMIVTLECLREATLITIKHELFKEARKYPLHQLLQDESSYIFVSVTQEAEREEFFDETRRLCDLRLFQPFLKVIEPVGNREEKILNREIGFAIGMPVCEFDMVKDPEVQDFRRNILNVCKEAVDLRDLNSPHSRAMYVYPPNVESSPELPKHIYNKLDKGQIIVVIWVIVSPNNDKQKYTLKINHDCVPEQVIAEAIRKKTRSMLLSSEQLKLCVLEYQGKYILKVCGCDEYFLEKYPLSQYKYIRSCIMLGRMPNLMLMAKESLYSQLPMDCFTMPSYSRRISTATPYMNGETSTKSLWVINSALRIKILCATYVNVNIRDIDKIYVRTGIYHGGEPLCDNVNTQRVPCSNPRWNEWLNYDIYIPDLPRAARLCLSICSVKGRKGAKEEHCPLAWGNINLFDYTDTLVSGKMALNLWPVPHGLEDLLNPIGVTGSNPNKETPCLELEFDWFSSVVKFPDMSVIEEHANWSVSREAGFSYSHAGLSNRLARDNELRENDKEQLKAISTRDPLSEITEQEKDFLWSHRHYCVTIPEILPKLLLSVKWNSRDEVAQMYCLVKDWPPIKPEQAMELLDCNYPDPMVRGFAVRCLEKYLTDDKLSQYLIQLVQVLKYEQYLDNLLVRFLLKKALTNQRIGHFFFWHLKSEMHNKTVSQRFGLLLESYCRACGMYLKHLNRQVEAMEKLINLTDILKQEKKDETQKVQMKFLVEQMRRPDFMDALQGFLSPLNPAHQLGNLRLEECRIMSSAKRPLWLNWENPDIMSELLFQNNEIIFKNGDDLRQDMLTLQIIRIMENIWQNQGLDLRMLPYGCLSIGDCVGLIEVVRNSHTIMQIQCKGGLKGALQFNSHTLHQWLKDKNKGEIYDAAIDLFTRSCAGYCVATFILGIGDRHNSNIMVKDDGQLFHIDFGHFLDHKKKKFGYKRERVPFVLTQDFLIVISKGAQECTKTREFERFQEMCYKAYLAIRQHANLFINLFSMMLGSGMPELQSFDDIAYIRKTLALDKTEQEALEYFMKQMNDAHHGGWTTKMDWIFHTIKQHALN
Sequence of PI3Kα (P27986 whole entry partner): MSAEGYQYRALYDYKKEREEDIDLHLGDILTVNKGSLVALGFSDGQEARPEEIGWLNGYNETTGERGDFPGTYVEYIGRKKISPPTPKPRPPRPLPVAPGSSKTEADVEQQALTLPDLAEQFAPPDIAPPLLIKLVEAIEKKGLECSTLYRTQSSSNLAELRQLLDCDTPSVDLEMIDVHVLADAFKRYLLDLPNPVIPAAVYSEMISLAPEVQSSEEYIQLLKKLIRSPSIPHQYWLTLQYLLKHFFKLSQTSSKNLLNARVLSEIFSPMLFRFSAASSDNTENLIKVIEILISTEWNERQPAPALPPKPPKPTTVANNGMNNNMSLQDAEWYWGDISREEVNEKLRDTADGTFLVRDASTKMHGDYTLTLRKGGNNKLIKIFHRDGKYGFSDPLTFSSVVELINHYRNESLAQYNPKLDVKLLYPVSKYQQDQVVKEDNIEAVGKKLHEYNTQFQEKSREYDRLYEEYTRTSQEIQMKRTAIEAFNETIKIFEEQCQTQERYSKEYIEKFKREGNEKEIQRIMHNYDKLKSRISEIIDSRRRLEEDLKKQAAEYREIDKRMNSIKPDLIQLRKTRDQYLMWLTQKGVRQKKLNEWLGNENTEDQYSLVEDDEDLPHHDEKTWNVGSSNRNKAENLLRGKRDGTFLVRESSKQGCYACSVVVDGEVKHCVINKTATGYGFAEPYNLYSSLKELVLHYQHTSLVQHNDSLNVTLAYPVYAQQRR

| Compound | IC50 [nM] |
| --- | --- |
| CCN(CC)c1nc(N2CCOc3ccc(-c4ccc5nc(C)[nH]c5c4)cc3C2)c2ccccc2n1 [Compound 6] | ≥ 2000 |
| Cc1nc2ccc(-c3ccc4c(c3)CN(c3cc(-c5ccccc5)nc(-c5ccccc5)n3)CCO4)cc2[nH]1 [Compound 7] | ≥ 2000 |
| Cn1cnc2cc(-c3ccc4c(c3)CN(c3ccnc5ccccc35)CCO4)ccc21 [Compound 130, 7-(1-methyl-1H-benzimidazol-5-yl)-4-quinolin-4-yl-2,3,4,5-tetrahydro-1,4-benzoxazepine] | 1000 to 2000 |
| Cc1nc2cc(-c3ccc4c(c3)CN(c3nc([C@@H]5CCCN5C(=O)OCc5ccccc5)nc5c3CC(C)(C)CC5)CCO4)cnc2[nH]1 [Compound 645, phenylmethyl (2S)-2-{6,6-dimethyl-4-[7-(2-methyl-3H-imidazo[4,5-b]pyridin-6-yl)-2,3-dihydro-1,4-benzoxazepin-4(5H)-yl]-5,6,7,8-tetrahydroquinazolin-2-yl}pyrrolidine-1-carboxylate] | 1000 to 2000 |

What follows are compounds tested against mTOR/GbL/Raptor (mTORC1) (Homo sapiens, UniProt P42345) (assay: mTOR/GbL/Raptor (mTORC1) ELISA Assay). Conditions: 4E-BP1 phosphorylation, 0.2 nM mTORC1, 10 μM ATP; last bin: >= 2,000 nM or not active under the conditions the assay was run; read-out: IC50 in this assay (mTORC1).
Assay type: biochemical
Procedure: The measurement of mTORC1 enzyme activity was performed in an ELISA assay format following the phosphorylation of 4E-BP1 protein. All experiments were performed in the 384-well format. Generally, 0.5 μL DMSO containing varying concentrations of the test Compound was mixed with 15 μL enzyme solution. Kinase reactions were initiated with the addition of 15 μL of substrates-containing solution. The assay conditions were as follows; 0.2 nM mTORC1, 10 μM ATP and 50 nM NHis-tagged 4E-BPI in 20 mM Hepes, pH 7.2, 1 mM DTT, 50 mM NaCl, 10 mM MnCl2, 0.02 mg/mL BSA, 0.01% CHAPS, 50 mM β-glycerophosphate. Following an incubation of 120 minutes at ambient temperature, 20 μL of the reaction volume was transferred to a Ni-Chelate-coated 384-well plate. The binding step of the 4E-BP1 protein proceeded for 60 minutes, followed by washing 4 times each with 50 μL of Tris-buffered saline solution (TBS). Anti-phospho-4E-BP1 rabbit-IgG (20 μL, 1:5000) in 5% BSA-TBST (0.2% Tween-20 in TBS) was added and further incubated for 60 minutes. Incubation with a secondary HRP-tagged anti-IgG was similarly performed after washing off the primary antibody (4 washes of 50 μL). Following the final wash step with TBST, 20 μL of SuperSignal ELISA Femto (Pierce Biotechnology) was added and the luminescence measured using an EnVision plate reader.

| Compound | IC50 [nM] |
| --- | --- |
| Cc1nc2ccc(-c3ccc4c(c3)CN(c3ccncn3)CCO4)cc2[nH]1 [Compound 2, 7-(2-methyl-1H-benzimidazol-6-yl)-4-pyrimidin-4-yl-2,3,4,5-tetrahydro-1,4-benzoxazepine] | ≥ 2000 |
| Cc1nc2ccc(-c3ccc4c(c3)CN(c3ncnc5ccc(Br)cc35)CCO4)cc2[nH]1 [Compound 12, 4-(6-bromoquinazolin-4-yl)-7-(2-methyl-1H-benzimidazol-6-yl)-2,3,4,5-tetrahydro-1,4-benzoxazepine] | ≤ 10 |
| Cc1nc2ccc(-c3ccc4c(c3)CN(c3ncnc5ccc(Cl)cc35)CCO4)cc2[nH]1 [Compound 13, 4-(6-chloroquinazolin-4-yl)-7-(2-methyl-1H-benzimidazol-6-yl)-2,3,4,5-tetrahydro-1,4-benzoxazepine] | ≤ 10 |
| Cc1nc2ccc(-c3ccc4c(c3)CN(c3ncnc5c(Br)cccc35)CCO4)cc2[nH]1 [Compound 25, 4-(8-bromoquinazolin-4-yl)-7-(2-methyl-1H-benzimidazol-6-yl)-2,3,4,5-tetrahydro-1,4-benzoxazepine] | 50 to 250 |
| Cn1cnc2cc(-c3ccc4c(c3)CN(c3ccnc5ccccc35)CCO4)ccc21 [Compound 130, 7-(1-methyl-1H-benzimidazol-5-yl)-4-quinolin-4-yl-2,3,4,5-tetrahydro-1,4-benzoxazepine] | 250 to 1000 |
| Cn1ccc2cc(-c3ccc4c(c3)CN(c3ccnc5ccccc35)CCO4)ccc21 [Compound 133, 7-(1-methyl-1H-indol-5-yl)-4-quinolin-4-yl-2,3,4,5-tetrahydro-1,4-benzoxazepine] | 1000 to 2000 |
| CC1(C)CCc2ncnc(N3CCOc4ccc(-c5ccc6nc[nH]c6c5)cc4C3)c2C1 [Compound 219, 7-(1H-benzimidazol-6-yl)-4-(6,6-dimethyl-5,6,7,8-tetrahydroquinazolin-4-yl)-2,3,4,5-tetrahydro-1,4-benzoxazepine] | ≤ 10 |
| COC(=O)Nc1nc2ccc(-c3ccc4c(c3)CN(c3ncnc5c3CC(C)(C)CC5)CCO4)cc2[nH]1 [Compound 235, methyl {6-[4-(6,6-dimethyl-5,6,7,8-tetrahydroquinazolin-4-yl)-2,3,4,5-tetrahydro-1,4-benzoxazepin-7-yl]-1H-benzimidazol-2-yl}carbamate] | 50 to 250 |
| CCNc1nc2ccc(-c3ccc4c(c3)CN(c3nc(C)nc5cc(O)ccc35)CCO4)cc2[nH]1 [Compound 285, 4-{7-[2-(ethylamino)-1H-benzimidazol-6-yl]-2,3-dihydro-1,4-benzoxazepin-4(5H)-yl}-2-methylquinazolin-7-ol] | 50 to 250 |
| Cc1nc2cc(-c3ccc4c(c3)CN(c3nc(CN(C)C)nc(C)c3C)CCO4)cnc2[nH]1 [Compound 335, 1-{4,5-dimethyl-6-[7-(2-methyl-3H-imidazo[4,5-b]pyridin-6-yl)-2,3-dihydro-1,4-benzoxazepin-4(5H)-yl]pyrimidin-2-yl}-N,N-dimethylmethanamine] | 1000 to 2000 |
| Cc1nc2ccc(-c3ccc4c(c3)CN(c3nc(C(C)(C)O)nc5c3CC(C)(C)CC5)CCO4)cc2[nH]1 [Compound 362, 2-{6,6-dimethyl-4-[7-(2-methyl-1H-benzimidazol-6-yl)-2,3-dihydro-1,4-benzoxazepin-4(5H)-yl]-5,6,7,8-tetrahydroquinazolin-2-yl}propan-2-ol] | 50 to 250 |
| CC1(C)CCc2ncnc(N3CCOc4ccc(-c5cnc(N)c(S(=O)(=O)N6CCC(N)C6)c5)cc4C3)c2C1 (stereo not shown) [Compound 445, 3-[(3-aminopyrrolidin-1-yl)sulfonyl]-5-[4-(6,6-dimethyl-5,6,7,8-tetrahydroquinazolin-4-yl)-2,3,4,5-tetrahydro-1,4-benzoxazepin-7-yl]pyridin-2-amine] | 10 to 50 |
| CC(C)(O)CCS(=O)(=O)c1cc(-c2ccc3c(c2)CN(c2ncnc4c2CC(C)(C)CC4)CCO3)cnc1N [Compound 459, 4-({2-amino-5-[4-(6,6-dimethyl-5,6,7,8-tetrahydroquinazolin-4-yl)-2,3,4,5-tetrahydro-1,4-benzoxazepin-7-yl]pyridin-3-yl}sulfonyl)-2-methylbutan-2-ol] | 50 to 250 |
| Cc1nc2cc(-c3ccc4c(c3)CN(c3nc(C5CCCN5)nc5c3CC(C)(C)CC5)CCO4)cnc2[nH]1 (stereo not shown) [Compound 474, 4-(6,6-dimethyl-2-pyrrolidin-2-yl-5,6,7,8-tetrahydroquinazolin-4-yl)-7-(2-methyl-3H-imidazo[4,5-b]pyridin-6-yl)-2,3,4,5-tetrahydro-1,4-benzoxazepine] | ≤ 10 |
| CC1(C)CCc2ncnc(N3CCOc4ccc(-c5cnc6c(c5)OCCN6)cc4C3)c2C1 [Compound 569, 7-(3,4-dihydro-2H-pyrido[3,2-b][1,4]oxazin-7-yl)-4-(6,6-dimethyl-5,6,7,8-tetrahydroquinazolin-4-yl)-2,3,4,5-tetrahydro-1,4-benzoxazepine] | 50 to 250 |
| CC1(C)CCc2ncnc(N3CCOc4ccc(-c5cnc(NCc6ccccc6)c(NS(C)(=O)=O)c5)cc4C3)c2C1 [Compound 630, N-{5-[4-(6,6-dimethyl-5,6,7,8-tetrahydroquinazolin-4-yl)-2,3,4,5-tetrahydro-1,4-benzoxazepin-7-yl]-2-[(phethylmethyl)amino]pyridin-3-yl}methanesulfonamide] | ≥ 2000 |
| CCNc1nc2ccc(-c3ccc4c(c3)CN(c3cc(C)nc5cc(F)ccc35)CCO4)cc2[nH]1 [Compound 641, N-ethyl-6-[4-(7-fluoro-2-methylquinolin-4-yl)-2,3,4,5-tetrahydro-1,4-benzoxazepin-7-yl]-1H-benzimidazol-2-amine] | 50 to 250 |
| Cc1nc2cc(-c3ccc4c(c3)CN(c3nc(N)nc(C)c3Cc3ccc(F)cc3)CCO4)ccc2[nH]1 [Compound 660, 5-[(4-fluorophenyl)methyl]-4-methyl-6-[7-(2-methyl-1H-benzimidazol-5-yl)-2,3-dihydro-1,4-benzoxazepin-4(5H)-yl]pyrimidin-2-amine] | ≤ 10 |
